# Reference: PubChem BioAssay (NCI)
#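 Briefly, cells in 96-well plates were exposed to five compound concentrations for 48 h, and endpoints were estimated by linear interpolation. At the TGI there is no net growth.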
# Tested on: P388/ADR leukemia
# Test: NCI tumour cell line growth inhibition, 48 h
smiles,measurement,value
CNC(=O)OCc1nc(SSC(C)(C)C)n(C)c1COC(=O)NC,TGI,> 28.2 µM
N[C@H](C(=O)O)[C@@H]1CC(Cl)=NO1,TGI,16.7 µM
